Several values for one entry are separate records, joined by “and”; a condition that tells them apart may be missing. Equal entries are not always repeated. Inconclusive results and toxic doses are left out. Rule for the calls: active = survival T/C of 150% or more; inactive = T/C below 125% in these data.
Tested on: P388 leukemia ip, CD2F1 mice, survival T/C
Assay: NCI In Vivo Anticancer Drug Screen. Data for tumor model P388 Leukemia (intraperitoneal) in CD2F1 (CDF1) mice
Details: endpoint: median survival time, higher = longer survival
Procedure, shortened: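 Mice carrying the transplanted tumor received test compound or vehicle. Survival was recorded in each group, and the value is the treated-group measurement divided by that of the vehicle-treated control group.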

[1] = dose: 15.0 mg/kg/injection, schedule: Q01DX005 (ip), vehicle: Klucel (hydroxypropylcellulose) (HPC)
[2] = dose: 30.0 mg/kg/injection, schedule: Q01DX005 (ip), vehicle: Klucel (hydroxypropylcellulose) (HPC)
[3] = dose: 50.0 mg/kg/injection, schedule: Q01DX009 (ip), vehicle: saline with Tween-80
[4] = dose: 100.0 mg/kg/injection, schedule: Q01DX009 (ip), vehicle: saline with Tween-80
[5] = dose: 200.0 mg/kg/injection, schedule: Q01DX009 (ip), vehicle: saline with Tween-80
[6] = dose: 100.0 mg/kg/injection, schedule: Q04DX002 (ip), vehicle: saline with Tween-80
[7] = dose: 60.0 mg/kg/injection, schedule: Q01DX005 (ip), vehicle: saline with Tween-80
[8] = dose: 120.0 mg/kg/injection, schedule: Q01DX005 (ip), vehicle: saline with Tween-80
[9] = dose: 240.0 mg/kg/injection, schedule: Q01DX005 (ip), vehicle: saline with Tween-80

Measured: T/C

O=S(=O)(/N=C1\c2ccccc2/C(=N\S(=O)(=O)c2ccccc2)C2C3C=CC(C3)C12)c1ccccc1 (stereo not given)
inactive: dose: 25.0 mg/kg/injection, schedule: Q01DX001 (ip), vehicle: saline with Tween-80 115 % of control | dose: 50.0 mg/kg/injection, schedule: Q01DX001 (ip), vehicle: saline with Tween-80 100 % of control | dose: 100.0 mg/kg/injection, schedule: Q01DX001 (ip), vehicle: saline with Tween-80 90 % of control

COc1cc(OC)c(NC(=O)C2=C(C)NC(C)=C(C(=O)Nc3cc(Cl)c(OC)cc3OC)C2c2cccc([N+](=O)[O-])c2)cc1Cl
inactive: [1] 101 % of control | [2] 100 % of control | dose: 60.0 mg/kg/injection, schedule: Q01DX005 (ip), vehicle: Klucel (hydroxypropylcellulose) (HPC) 101 % of control and 93 % of control

CC(=O)OC(c1ccccc1)N(Cc1ccccc1)N=O (stereo not given)
inactive: dose: 12.5 mg/kg/injection, schedule: Q01DX009 (ip), vehicle: distilled water + Tween-80 111 % of control | dose: 25.0 mg/kg/injection, schedule: Q01DX009 (ip), vehicle: distilled water + Tween-80 111 % of control | dose: 50.0 mg/kg/injection, schedule: Q01DX009 (ip), vehicle: distilled water + Tween-80 118 % of control | dose: 100.0 mg/kg/injection, schedule: Q01DX009 (ip), vehicle: distilled water + Tween-80 117 % of control | dose: 200.0 mg/kg/injection, schedule: Q01DX009 (ip), vehicle: distilled water + Tween-80 119 % of control

O=C(O)CCC(CCC(=O)O)(C(=O)O)C(=O)O
inactive: dose: 60.0 mg/kg/injection, schedule: Q01DX005 (ip), vehicle: saline 96 % of control | dose: 120.0 mg/kg/injection, schedule: Q01DX005 (ip), vehicle: saline 99 % of control

O=C1/C(=C/c2cccc(O)c2O)SC(=S)N1CCCN1CCOCC1
inactive: [3] 98 % of control | [4] 107 % of control | [5] 92 % of control

Cc1ccc(Cl)cc1S
inactive: dose: 50.0 mg/kg/injection, schedule: Q04DX003 (ip), vehicle: saline 95 % of control | dose: 100.0 mg/kg/injection, schedule: Q04DX003 (ip), vehicle: saline 95 % of control

c1ccc2c(c1)-c1cc3ccc4ccccc4c3nc1C1OC21 (stereo not given)
inactive: dose: 25.0 mg/kg/injection, schedule: Q04DX002 (ip), vehicle: saline with Tween-80 105 % of control | dose: 50.0 mg/kg/injection, schedule: Q04DX002 (ip), vehicle: saline with Tween-80 99 % of control | [6] 100 % of control

CC(C)(C)C(=O)NNc1cccc(Cl)n1
inactive: dose: 50.0 mg/kg/injection, schedule: Q01DX001 (ip), vehicle: Klucel (hydroxypropylcellulose) (HPC) 109 % of control | dose: 100.0 mg/kg/injection, schedule: Q01DX001 (ip), vehicle: Klucel (hydroxypropylcellulose) (HPC) 98 % of control | dose: 200.0 mg/kg/injection, schedule: Q01DX001 (ip), vehicle: Klucel (hydroxypropylcellulose) (HPC) 100 % of control

C=C(C)C12OC3(CCCCCCCCC)OC1C1C4OC4(CO)C(O)C4(O)C(=O)C(C)=CC4C1(O3)C(C)C2OC(C)=O (stereo not given)
inactive: dose: 12.5 micrograms/kg/injection, schedule: Q01DX009 (ip), vehicle: saline + alcohol 101 % of control | dose: 25.0 micrograms/kg/injection, schedule: Q01DX009 (ip), vehicle: saline + alcohol 104 % of control | dose: 50.0 micrograms/kg/injection, schedule: Q01DX009 (ip), vehicle: saline + alcohol 104 % of control | dose: 100.0 micrograms/kg/injection, schedule: Q01DX009 (ip), vehicle: saline + alcohol 104 % of control | dose: 200.0 micrograms/kg/injection, schedule: Q01DX009 (ip), vehicle: saline + alcohol 123 % of control

O=c1c2ccccc2c(Br)c(Br)c2ccccc12
inactive: [7] 106 % of control | [8] 110 % of control | [9] 109 % of control

CCc1c(O)c(C#N)c2[nH]c3cc(C)c(C)cc3n2c1=O
inactive: [7] 100 % of control | [8] 102 % of control | [9] 99 % of control

FC(F)(F)c1cccc(N(c2nc(Cl)nc(Cl)n2)c2nc(Cl)nc(Cl)n2)c1
inactive: dose: 50.0 mg/kg/injection, schedule: Q01DX009 (ip), vehicle: suspension in saline 94 % of control | dose: 100.0 mg/kg/injection, schedule: Q01DX009 (ip), vehicle: suspension in saline 92 % of control | dose: 200.0 mg/kg/injection, schedule: Q01DX009 (ip), vehicle: suspension in saline 91 % of control

CC12C=CC(C(C(=O)O)C1=O)C2(C)C (stereo not given)
inactive: [6] 107 % of control | dose: 200.0 mg/kg/injection, schedule: Q04DX002 (ip), vehicle: saline with Tween-80 103 % of control

CC(=O)N/N=C/c1ccccc1[N+](=O)[O-]
inactive: dose: 12.5 mg/kg/injection, schedule: Q01DX009 (ip), vehicle: other 97 % of control | dose: 25.0 mg/kg/injection, schedule: Q01DX009 (ip), vehicle: other 96 % of control | dose: 50.0 mg/kg/injection, schedule: Q01DX009 (ip), vehicle: other 98 % of control | dose: 100.0 mg/kg/injection, schedule: Q01DX009 (ip), vehicle: other 107 % of control

CC1(C)C=Cc2c(O)c(C(=O)/C=C/c3ccccc3)c3c(c2O1)C=CC(C)(C)O3
inactive: dose: 5.25 mg/kg/injection, schedule: Q01DX005 (ip), vehicle: Klucel (hydroxypropylcellulose) (HPC) 100 % of control | dose: 10.5 mg/kg/injection, schedule: Q01DX005 (ip), vehicle: Klucel (hydroxypropylcellulose) (HPC) 95 % of control | dose: 21.0 mg/kg/injection, schedule: Q01DX005 (ip), vehicle: Klucel (hydroxypropylcellulose) (HPC) 97 % of control | dose: 42.0 mg/kg/injection, schedule: Q01DX005 (ip), vehicle: Klucel (hydroxypropylcellulose) (HPC) 86 % of control

CCCCC1(C#Cc2ccccc2)Sc2ccccc2N1C (stereo not given)
inactive: [7] 98 % of control | [8] 101 % of control | [9] 107 % of control

CNCC(O)CC12CCC(c3ccccc31)c1ccccc12 (stereo not given)
inactive: dose: 50.0 mg/kg/injection, schedule: Q01DX009 (ip), vehicle: Klucel (hydroxypropylcellulose) (HPC) 104 % of control | dose: 100.0 mg/kg/injection, schedule: Q01DX009 (ip), vehicle: Klucel (hydroxypropylcellulose) (HPC) 106 % of control

CCCn1c2nc(=O)n(C)c(=O)c-2cc2ccccc21
inactive: dose: 10.0 mg/kg/injection, schedule: Q01DX009 (ip), vehicle: saline with Tween-80 105 % of control | dose: 20.0 mg/kg/injection, schedule: Q01DX009 (ip), vehicle: saline with Tween-80 116 % of control | dose: 40.0 mg/kg/injection, schedule: Q01DX009 (ip), vehicle: saline with Tween-80 111 % of control

O=C(Nc1n[nH]c(NC(=O)C(F)(F)F)n1)C(F)(F)F
inactive: dose: 50.0 mg/kg/injection, schedule: Q01DX005 (ip), vehicle: Klucel (hydroxypropylcellulose) (HPC) 103 % of control | dose: 100.0 mg/kg/injection, schedule: Q01DX005 (ip), vehicle: Klucel (hydroxypropylcellulose) (HPC) 103 % of control | dose: 200.0 mg/kg/injection, schedule: Q01DX005 (ip), vehicle: Klucel (hydroxypropylcellulose) (HPC) 100 % of control

C1CC[N-]CC1.C1CC[N-]CC1.C1CC[N-]CC1.C1CC[N-]CC1.[Cl][Co][Cl]
inactive: dose: 25.0 mg/kg/injection, schedule: Q04DX003 (ip), vehicle: saline with Tween-80 100 % of control | dose: 33.0 mg/kg/injection, schedule: Q01DX009 (ip), vehicle: saline with Tween-80 91 % of control | dose: 100.0 mg/kg/injection, schedule: Q04DX003 (ip), vehicle: saline with Tween-80 118 % of control

O=C(Nc1ccccc1)Oc1ccc(/C=N/S(=O)(=O)c2cccc([N+](=O)[O-])c2)cc1
inactive: [3] 96 % of control | [4] 98 % of control | [5] 118 % of control

C[n+]1ccc(C#N)c(C#N)c1
inactive: dose: 3.75 mg/kg/injection, schedule: Q01DX005 (ip), vehicle: Klucel (hydroxypropylcellulose) (HPC) 102 % of control | dose: 7.5 mg/kg/injection, schedule: Q01DX005 (ip), vehicle: Klucel (hydroxypropylcellulose) (HPC) 116 % of control | [1] 103 % of control | [2] 108 % of control and 110 % of control

O=C(O)CN(CC(=O)O)C1CC1N(CC(=O)O)CC(=O)O (stereo not given)
inactive: dose: 50.0 mg/kg/injection, schedule: Q01DX009 (ip), vehicle: saline 97 % of control | dose: 100.0 mg/kg/injection, schedule: Q01DX001 (ip), vehicle: saline 96 % of control | dose: 100.0 mg/kg/injection, schedule: Q01DX009 (ip), vehicle: saline 100 % of control | dose: 200.0 mg/kg/injection, schedule: Q01DX001 (ip), vehicle: saline 100 % of control | dose: 200.0 mg/kg/injection, schedule: Q01DX009 (ip), vehicle: saline 97 % of control | dose: 400.0 mg/kg/injection, schedule: Q01DX001 (ip), vehicle: saline 97 % of control

Source: PubChem BioAssay AID330 (DTP/NCI, 2004)
